Data on 33 compounds can be found in US20140350014A1, “COMPOUNDS FOR INHIBITING THE INTERACTION OF BCL2 WITH BINDING PARTNERS” (NOVARTIS AG, priority 2011, published 2014).

Test [1] has as its target BCL-2 binding to BAD peptide (Homo sapiens, UniProt P10415). Kind of test: BCL2 SPR solution inhibition assay, BAD peptide surface (Biacore A100). As to conditions: read-out: BCL2_SPR IC50 BAD. The text has this: (§1) 33The present method includes utility of a Surface plasmon resonance (SPR)-based biosensor (Bia34core™′ GE Healthcare, Uppsala, Sweden) to characterize BCL-2 inhibitors. 35
(§2) 36Biacore™ utilizes the phenomenon of surface plasmon resonance (SPR) to detect and measure 37binding interactions. In a typical Biacore experiment, one of the interacting molecules (ligand) is i38mmobilized on a flexible dextran matrix while the interacting partner (analyte) is allowed to fl39ow across that surface. A binding interaction results in an increase in mass on the sensor surface 40and a corresponding direct change in the refractive index of the medium in the vicinity of the 41sensor surface. Changes in refractive index or signal are recorded in resonance units (R.U.) Signal 42changes due to association and dissociation of complexes are monitored in a non-invasive manne43r, continuously and in real-time, the results of which are reported in the form of a sensorgram.44
(§3) The SPR assay is con45figured to examine solution inhibition of BCL-2 binding to peptide derivatized sensor surfa46ces to generate IC50 values as a measure of inhibitor potency.
(§4) Biacore™ A100 (GE Healthcare, Uppsala, Sweden) was used to conduct all experiments reported herein. Sensor surface preparation and all interaction analyses experiments were performed at 25° C. Reagents were purchased from GE Healthcare. Running buffer containing 10 mM Hepes, pH7.4, 150 mM sodium chloride, 1.25 mM Dithiothreitol, 3% Dimethyl sulfoxide and 0.05% polysorbate 20 were utilized throughout all analyses.
(§5) Biotinylated BAK, BAD and NOXA peptides were diluted to 10 nM in running buffer and captured onto a sensor surface pre-derivatized with streptavidin (sensor chip SA) to peptide surface densities in the range 50-100 R.U. Peptide captured surfaces were blocked with 500 μM PEO2-Biotin.
(§6) Interaction analyses were performed by first equilibrating each sample within a 6 point three fold compound dilution series in the range 16 μM to […] with 56 nM BCL-2 for one hour during instrument start-up procedures. Protein compound mixtures were then injected over each peptide surface in parallel for 60 seconds at a flow-rate of 30 μL/min. 56 nM BCL-2 control samples were also prepared and run at regular intervals during the assay. Surface regeneration was performed at the end of each analysis cycle by two 30 second injections of 10 mM Glycine, pH 2.5, 1M Sodium Chloride, 0.05% polysorbate 20. Samples and control compound samples were run in duplicate and controls are also run at regular intervals during the assay to monitor surface and assay performance.
(§7) Data analyses are carried out using Biacore™ A100 evaluation software v1.1 to validate assay quality. Binding level report points were used relative to BCL-2 control samples to calculate % inhibition values for each compound protein mixture. […] The range of data shown in table 1 represents the high and low IC50 values obtained from multiple experiments.
A general note: SPR reads the build-up and loss of mass on a sensor chip optically.

In test [2] the target is BCL-2 binding to BAK peptide (Homo sapiens, UniProt P10415). Kind of test: BCL2 SPR solution inhibition assay, BAK peptide surface (Biacore A100). As to conditions: read-out: BCL2_SPR IC50 BAK.
Chain of BCL-2 binding to BAK peptide (P10415 whole entry): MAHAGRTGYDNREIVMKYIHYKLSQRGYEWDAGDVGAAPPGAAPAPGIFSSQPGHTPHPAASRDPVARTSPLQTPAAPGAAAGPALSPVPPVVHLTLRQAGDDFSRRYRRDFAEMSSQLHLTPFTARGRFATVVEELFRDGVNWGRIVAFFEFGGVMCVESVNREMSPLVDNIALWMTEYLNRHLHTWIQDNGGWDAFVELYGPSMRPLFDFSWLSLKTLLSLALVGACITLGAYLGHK
Text: as §1, §2, §3, §4, §5, §6, §7

SMILES strings stand for the structures.

Chain of BCL-2 binding to BAD peptide (P10415 whole entry): as above

In the case of `CCCCN(CCCC)C(=O)c1cc(C)n(-c2ccc(N3CCOCC3)cc2C(=O)N2Cc3ccccc3C[C@H]2CO)n1` [Example 1, (S)—N,N-dibutyl-1-(2-(3-(hydroxymethyl)-1,2,3,4-tetrahydroisoquinoline-2-carbonyl)-4-morpholinophenyl)-5-methyl-1H-pyrazole-3-carboxamide], the IC50 was 1400 to 1520 nM in test [1] and 725 to 860 nM in test [2].

In the case of `CCCCN(CCCC)C(=O)c1cc(C)n(-c2ccc(N3CCN(c4ccccc4)CC3=O)cc2C(=O)N2Cc3ccccc3C[C@H]2CO)n1` [Example 2, (S)—N,N-dibutyl-1-(2-(3-(hydroxymethyl)-1,2,3,4-tetrahydroisoquinoline-2-carbonyl)-4-(2-oxo-4-phenylpiperazin-1-yl)phenyl)-5-methyl-1H-pyrazole-3-carboxamide], the IC50 lay in the range of 4360 to 4620 nM in test [1] and 3150 to 3300 nM in test [2].

For `CCCCN(CCCC)C(=O)c1cc(C)n(-c2ccc(N3CCN(Cc4ccc(Cl)cc4)C(=O)C3)cc2C(=O)N2Cc3ccccc3C[C@H]2CO)n1` [Example 3, (S)—N,N-dibutyl-1-(4-(4-(4-chlorobenzyl)-3-oxopiperazin-1-yl)-2-(3-(hydroxymethyl)-1,2,3,4-tetrahydroisoquinoline-2-carbonyl)phenyl)-5-methyl-1H-pyrazole-3-carboxamide], the figures for the IC50 in test [1] and in test [2] were 474 to 506 nM and 512 to 515 nM, respectively.

In the case of `CCCCN(CCCC)C(=O)c1cc(C)n(-c2ccc(-c3cccc(C(=O)O)c3)cc2C(=O)N2Cc3ccccc3C[C@H]2CO)n1` [Example 4, (S)-4′-(3-(dibutylcarbamoyl)-5-methyl-1H-pyrazol-1-yl)-3′-(3-(hydroxymethyl)-1,2,3,4-tetrahydroisoquinoline-2-carbonyl)-[1,1′-biphenyl]-3-carboxylic acid], the results for the IC50 in test [1] and in test [2] were 110 to 119 nM and 86.6 to 91 nM, respectively.

Turning to `CCCCN(CCCC)C(=O)c1nn(-c2ccc(-c3cccnc3)cc2C(=O)N2Cc3ccccc3C[C@H]2CO)c(C)c1Cl` [Example 5], the figures for the IC50 in test [1] and in test [2] were 218 to 236 nM and 253 to 262 nM, respectively.

Consider `CCCCN(CCCC)C(=O)c1nn(-c2ccc(-c3ccc(N)nc3)cc2C(=O)N2Cc3ccccc3C[C@H]2CO)c(C)c1Cl` [Example 6], for which the IC50 in test [1] was 231 to 288 nM; in test [2], 210 to 252 nM.

In the case of `CCCCN(CCCC)C(=O)c1nn(-c2ccc(-c3cc[nH]n3)cc2C(=O)N2Cc3ccccc3C[C@H]2CO)c(C)c1Cl` [Example 7], the figures for the IC50 in test [1] and in test [2] were 739 to 770 nM and 609 to 613 nM, respectively.

As for `CCCCN(CCCC)C(=O)c1nn(-c2ccc(-c3ccc(N(C)C)nc3)cc2C(=O)N2Cc3ccccc3C[C@H]2CO)c(C)c1Cl` [Example 8], the IC50 in test [1] is 745 to 750 nM; in test [2], 767 to 786 nM.

With `CCCCN(CCCC)C(=O)c1nn(-c2ccc(-c3ccncc3OC)cc2C(=O)N2Cc3ccccc3C[C@H]2CO)c(C)c1Cl` [Example 9], the IC50 in test [1] fell in the range of 773 to 905 nM; in test [2], 703 to 902 nM.

As for `CCCCN(CCCC)C(=O)c1nn(-c2ccc(-c3ccc(OC)nc3)cc2C(=O)N2Cc3ccccc3C[C@H]2CO)c(C)c1Cl` [Example 10], the results for the IC50 in test [1] and in test [2] were 843 to 958 nM and 790 to 906 nM, respectively.

For `CCCCN(CCCC)C(=O)c1nn(-c2ccc(-c3ccccc3)cc2C(=O)N2Cc3ccccc3C[C@H]2CO)c(C)c1Cl` [Example 11], the IC50 in test [1] lay within 1480 to 1580 nM; in test [2] it was 1400 to 1490 nM.

For `CCCCN(CCCC)C(=O)c1nn(-c2ccc(-c3cnn(Cc4ccccc4)c3)cc2C(=O)N2Cc3ccccc3C[C@H]2CO)c(C)c1Cl` [Example 12], the IC50 in test [1] fell in the range of 127 to 148 nM; in test [2] it was 103 to 115 nM.

As for `CCCCN(CCCC)C(=O)c1cc(C)n(-c2ccc(-c3ccc(C(=O)O)cc3)cc2C(=O)N2Cc3ccccc3C[C@H]2CO)n1` [Example 13], the figures for the IC50 in test [1] and in test [2] were 133 to 165 nM and 105 to 129 nM, respectively.

On to `CCCCN(CCCC)C(=O)c1nn(-c2ccc(-c3cn[nH]c3)cc2C(=O)N2Cc3ccccc3C[C@H]2CO)c(C)c1Cl` [Example 14], for which the figures for the IC50 in test [1] and in test [2] were 277 to 315 nM and 189 to 213 nM, respectively.

`CCCCN(CCCC)C(=O)c1cc(C)n(-c2ccc(N3CCN(c4ccccc4)CC3)cc2C(=O)N2Cc3ccccc3C[C@H]2CO)n1` [Example 15]: the values for the IC50 in test [1] and in test [2] were 668 to 770 nM and 552 to 713 nM, respectively.

Turning to `CCCCN(CCCC)C(=O)c1cc(C)n(-c2ccc(N3CCN(C(=O)OC(C)(C)C)CC3=O)cc2C(=O)N2Cc3ccccc3C[C@H]2CO)n1` [Example 16], the values for the IC50 in test [1] and in test [2] were 2020 to 2210 nM and 1340 to 1450 nM, respectively.

Consider `CCCCN(CCCC)C(=O)c1cc(C)n(-c2ccc(N3CCN(C)CC3)cc2C(=O)N2Cc3ccccc3C[C@H]2CO)n1` [Example 17], for which the IC50 lay within 2640 to 3050 nM in test [1] and 1570 to 1640 nM in test [2].

Regarding `CCCCN(CCCC)C(=O)c1cc(C)n(-c2ccc(N3CCCCC3)cc2C(=O)N2Cc3ccccc3C[C@H]2CO)n1` [Example 18], the IC50 in test [1] was 2360 to 2740 nM; in test [2], 1650 to 1930 nM.

Regarding `CCCCN(CCCC)C(=O)c1cc(C)n(-c2ccc(N3CCOCC3=O)cc2C(=O)N2Cc3ccccc3C[C@H]2CO)n1` [Example 19], the IC50 in test [1] is 11200 to 12200 nM; in test [2], 6060 to 6600 nM.

Take `CCCCN(CCCC)C(=O)c1cc(C)n(-c2ccc(N3CCN(Cc4ccccc4)C(=O)C3)cc2C(=O)N2Cc3ccccc3C[C@H]2CO)n1` [Example 20]: the results for the IC50 in test [1] and in test [2] were 136 to 143 nM and 119 to 137 nM, respectively.

For `CCCCN(CCCC)C(=O)c1cc(C)n(-c2ccc(N3CCN(Cc4ccccc4Cl)C(=O)C3)cc2C(=O)N2Cc3ccccc3C[C@H]2CO)n1` [Example 21], the IC50 in test [1] was 180 to 202 nM; in test [2], 179 to 190 nM.

In the case of `CCCCN(CCCC)C(=O)c1cc(C)n(-c2ccc(N3CCN(Cc4ccccc4)CC3)cc2C(=O)N2Cc3ccccc3C[C@H]2CO)n1` [Example 22], the concentration for half-maximal inhibition (IC50) was 202 to 231 nM in test [1] and 220 to 272 nM in test [2].

In the case of `CCCCN(CCCC)C(=O)c1cc(C)n(-c2ccc(N3CCN(Cc4cccc(Cl)c4)C(=O)C3)cc2C(=O)N2Cc3ccccc3C[C@H]2CO)n1` [Example 23], the results for the IC50 in test [1] and in test [2] were 162 nM and 148 to 155 nM, respectively.

`CCCCN(CCCC)C(=O)c1cc(C)n(-c2ccc(-c3ccccc3F)cc2C(=O)N2Cc3ccccc3C[C@H]2CO)n1` [Example 24]: the IC50 in test [1] lay within 3010 to 3410 nM; in test [2] it was 3360 to 4630 nM.

As to `CCCCN(CCCC)C(=O)c1cc(C)n(-c2ccc(-c3ccc(C(=O)N4CCCC4)c(F)c3)cc2C(=O)N2Cc3ccccc3C[C@H]2CO)n1` [Example 25], the half-inhibitory concentration (IC50) in test [1] lay within 223 to 224 nM; in test [2] it was 159 to 171 nM.

`CCCCN(CCCC)C(=O)c1cc(C)n(-c2ccc(-c3ccc(S(=O)(=O)N4CCCCC4)cc3)cc2C(=O)N2Cc3ccccc3C[C@H]2CO)n1` [Example 26]: the 50% inhibitory concentration (IC50) in test [1] fell in the range of 584 to 672 nM; in test [2], 437 to 484 nM.

Consider `CCCCN(CCCC)C(=O)c1cc(C)n(-c2ccc(-c3cccc(Cl)c3)cc2C(=O)N2Cc3ccccc3C[C@H]2CO)n1` [Example 27], for which the results for the IC50 in test [1] and in test [2] were 744 to 783 nM and 520 to 599 nM, respectively.

As for `CCCCN(CCCC)C(=O)c1cc(C)n(-c2ccc(-c3ccc(F)c(C)c3)cc2C(=O)N2Cc3ccccc3C[C@H]2CO)n1` [Example 28], the half-maximal inhibitory concentration (IC50) in test [1] was in the range of 919 to 1070 nM; in test [2], 802 to 913 nM.

Turning to `CCCCN(CCCC)C(=O)c1cc(C)n(-c2ccc(-c3ccc(OC)c(C)c3)cc2C(=O)N2Cc3ccccc3C[C@H]2CO)n1` [Example 29], the values for the IC50 in test [1] and in test [2] were 767 to 820 nM and 563 to 621 nM, respectively.

`CCCCN(CCCC)C(=O)c1cc(C)n(-c2ccc(-c3ccc(OC)c(Cl)c3)cc2C(=O)N2Cc3ccccc3C[C@H]2CO)n1` [Example 30]: the IC50 in test [1] is 651 to 676 nM; in test [2] it was 510 to 591 nM.

For the compound `CCCCN(CCCC)C(=O)c1cc(C)n(-c2ccc(-c3cnc4ccccc4c3)cc2C(=O)N2Cc3ccccc3C[C@H]2CO)n1` [Example 31], the IC50 is 177 to 178 nM in test [1] and 140 to 142 nM in test [2].

On to `CCCCN(CCCC)C(=O)c1cc(C)n(-c2ccc(-c3ccc(F)c(C#N)c3)cc2C(=O)N2Cc3ccccc3C[C@H]2CO)n1` [Example 32], for which the IC50 in test [1] is 410 to 465 nM; in test [2] it was 359 to 375 nM.

Take `CCCCN(CCCC)C(=O)c1cc(C)n(-c2ccc(-c3ccc(NC(C)=O)cc3)cc2C(=O)N2Cc3ccccc3C[C@H]2CO)n1` [Example 33]: the IC50 is 455 to 553 nM in test [1] and 339 to 434 nM in test [2].

As a reminder, the IC50 is the midpoint of a concentration-inhibition curve.
